The source made the active and inactive calls. The calls are words filed in the database; no cut-off is given here.
Legend:
Entamoeba histolytica [1] = assay: Antimicrobial activity against Entamoeba histolytica NIH 200-mu cecal forms infected in Wistar albino rat assessed as cure rate administered qd for 5 days by microscopic analysis; type: functional; conditions: for minimal effective dose: 120 h, read-out: MED
Entamoeba histolytica [2] = assay: Antimicrobial activity against Entamoeba histolytica NIH 200-mu hepatic forms infected in golden hamster assessed as survival rate administered qd for 5 days measured up to 14 days by microscopic analysis; type: functional; conditions: for minimal effective dose: read-out: MED
Rattus norvegicus [3] = assay: Toxicity in Wistar albino rat assessed as general listlessness up to 150 mg/kg administered qd for 5 days; type: organism-based; parameters: dose 150 mg/kg; conditions: in vivo, 120 h
Rattus norvegicus [4] = assay: Toxicity in Wistar albino rat assessed as reduction in water and food intake up to 150 mg/kg administered qd for 5 days; type: organism-based; parameters: dose 150 mg/kg; conditions: in vivo, 120 h
Syrian golden hamster [5] = assay: Toxicity in golden hamster assessed as general listlessness up to 150 mg/kg administered qd for 5 days; type: organism-based, Mesocricetus auratus; parameters: dose 150 mg/kg; conditions: in vivo, 120 h
Syrian golden hamster [6] = assay: Toxicity in golden hamster assessed as reduction in water and food intake up to 150 mg/kg administered qd for 5 days; type: organism-based, Mesocricetus auratus; parameters: dose 150 mg/kg; conditions: in vivo, 120 h
Salmonella typhimurium = assay: Mutagenic activity in Salmonella typhimurium by Ames test; type: toxicity, organism-based; conditions: salmonella enterica subsp. enterica serovar typhimurium
Rattus norvegicus [7] = assay: Toxicity in Wistar albino rat assessed as general listlessness administered qd for 5 days; type: organism-based; conditions: in vivo, 120 h
Rattus norvegicus [8] = assay: Toxicity in Wistar albino rat assessed as reduction in water and food intake administered qd for 5 days; type: organism-based; conditions: in vivo, 120 h
Syrian golden hamster [9] = assay: Toxicity in golden hamster assessed as general listlessness administered qd for 5 days; type: organism-based, Mesocricetus auratus; conditions: in vivo, 120 h
Syrian golden hamster [10] = assay: Toxicity in golden hamster assessed as reduction in water and food intake administered qd for 5 days; type: organism-based, Mesocricetus auratus; conditions: in vivo, 120 h

| Compound | minimal effective dose (Entamoeba histolytica [1]) [mg/kg] | minimal effective dose (Entamoeba histolytica [2]) [mg/kg] | Activity (Rattus norvegicus [3]) | Activity (Rattus norvegicus [4]) | Activity (Syrian golden hamster [5]) | Activity (Syrian golden hamster [6]) | Activity (Entamoeba histolytica [2]) | further results |
| --- | --- | --- | --- | --- | --- | --- | --- | --- |
| C/C(=N\c1ccc2c(c1)C(=O)c1ccc(/N=C(\C)N(C)C)cc1C2=O)N(C)C | 5 | 2.5 | Non-toxic | Non-toxic | Non-toxic | Non-toxic |  | Activity (Salmonella typhimurium): Non-toxic |
| CC/C(=N\c1ccc2c(c1)C(=O)c1ccc(/N=C(\CC)N3CCN(C)CC3)cc1C2=O)N1CCN(C)CC1 | 20 |  | Non-toxic | Non-toxic | Non-toxic | Non-toxic | inactive |  |
| CN(C)/C=N/c1ccc2c(c1)C(=O)c1ccccc1C2=O |  |  |  |  |  |  | inactive | Activity (Entamoeba histolytica [1]): inactive; Activity (Rattus norvegicus [7]): Toxic; Activity (Rattus norvegicus [8]): Toxic; Activity (Syrian golden hamster [9]): Toxic; Activity (Syrian golden hamster [10]): Toxic |
| C/C(=N\c1ccc2c(c1)C(=O)c1ccc(/N=C(\C)N3CCCCC3)cc1C2=O)N1CCCCC1 | 50 | 100 | Non-toxic | Non-toxic | Non-toxic | Non-toxic |  |  |
| CN(C)/C=N\c1cccc2c1C(=O)c1cccc(/N=C\N(C)C)c1C2=O |  |  |  |  |  |  | inactive | Activity (Entamoeba histolytica [1]): inactive |
| CC/C(=N\c1ccc2c(c1)C(=O)c1ccc(/N=C(\CC)N3CCCCC3)cc1C2=O)N1CCCCC1 | 50 |  | Non-toxic | Non-toxic | Non-toxic | Non-toxic | inactive |  |
| CC/C(=N\c1ccc2c(c1)C(=O)c1ccc(/N=C(\CC)N(C)C)cc1C2=O)N(C)C | 10 | 2.5 | Non-toxic | Non-toxic | Non-toxic | Non-toxic |  |  |
| CN(C)/C(=N/c1ccc2c(c1)C(=O)c1ccc(/N=C(\c3ccc(Cl)cc3)N(C)C)cc1C2=O)c1ccc(Cl)cc1 | 20 | 50 |  |  |  |  |  | Activity (Salmonella typhimurium): Non-toxic |
| CC/C(N)=N\c1ccc2c(c1)C(=O)c1ccc(/N=C(/N)CC)cc1C2=O |  |  | Non-toxic | Non-toxic | Non-toxic | Non-toxic | inactive | Activity (Entamoeba histolytica [1]): inactive |
| CCCCN(C)/C(CC)=N/c1ccc2c(c1)C(=O)c1ccc(/N=C(\CC)N(C)CCCC)cc1C2=O | 20 | 50 | Non-toxic | Non-toxic | Non-toxic | Non-toxic |  |  |
| CCC/C(=N\c1ccc2c(c1)C(=O)c1ccc(/N=C(\CCC)N(C)C)cc1C2=O)N(C)C | 20 | 50 |  |  |  |  |  |  |
| CCN(CC)/C(=N/c1ccc2c(c1)C(=O)c1ccc(/N=C(\C3CC3)N(CC)CC)cc1C2=O)C1CC1 | 20 |  |  |  |  |  | inactive |  |
| CC(C)C/C(=N\c1ccc2c(c1)C(=O)c1ccc(/N=C(\CC(C)C)N(C)C)cc1C2=O)N(C)C | 20 | 50 |  |  |  |  |  |  |
| CCN(C(C)=O)/C(C)=N/c1ccc2c(c1)C(=O)c1ccc(/N=C(\C)N(CC)C(C)=O)cc1C2=O |  |  | Non-toxic | Non-toxic | Non-toxic | Non-toxic | inactive | Activity (Entamoeba histolytica [1]): inactive |
| CN(C)/C=N\c1ccc(/N=C\N(C)C)c2c1C(=O)c1ccccc1C2=O |  |  |  |  |  |  | inactive | Activity (Entamoeba histolytica [1]): inactive |
| CCN(CC)/C(=N/c1ccc2c(c1)C(=O)c1ccc(/N=C(/N(CC)CC)C(C)(C)C)cc1C2=O)C(C)(C)C | 20 | 50 |  |  |  |  |  |  |
| CCS(=O)(=O)CCn1c([N+](=O)[O-])cnc1C [TINIDAZOLE] | 5 | 25 |  |  |  |  |  |  |

| Compound | minimal effective dose (Entamoeba histolytica [1]) [mg/kg] | minimal effective dose (Entamoeba histolytica [2]) [mg/kg] | Activity (Rattus norvegicus [3]) | Activity (Rattus norvegicus [4]) | Activity (Syrian golden hamster [5]) | Activity (Syrian golden hamster [6]) | Activity (Entamoeba histolytica [2]) | further results |
| --- | --- | --- | --- | --- | --- | --- | --- | --- |
| O=C1c2ccc(/N=C/N3CCCCC3)cc2C(=O)c2ccc(/N=C/N3CCCCC3)cc21 | 20 | 100 |  |  |  |  |  | Activity (Rattus norvegicus [7]): Toxic; Activity (Rattus norvegicus [8]): Toxic; Activity (Syrian golden hamster [9]): Toxic; Activity (Syrian golden hamster [10]): Toxic |
| O=C1c2ccc(N/C3=N/CCCCCC3)cc2C(=O)c2ccc(N/C3=N/CCCCCC3)cc21 | 20 |  | Non-toxic | Non-toxic | Non-toxic | Non-toxic | inactive |  |
| C/C(=N/c1cccc2c1C(=O)c1cccc(/N=C(/C)N(C)C)c1C2=O)N(C)C |  |  |  |  |  |  | inactive | Activity (Entamoeba histolytica [1]): inactive |
| C/C(N)=N\c1ccc2c(c1)C(=O)c1ccc(/N=C(\C)N)cc1C2=O | 10 |  | Non-toxic | Non-toxic | Non-toxic | Non-toxic | inactive |  |
| O=C1c2ccc(/N=C(\c3ccccc3)N3CCCCC3)cc2C(=O)c2ccc(/N=C(\c3ccccc3)N3CCCCC3)cc21 | 10 |  |  |  |  |  | inactive |  |
| CN(C)/C=N/c1ccc2c(c1)C(=O)c1ccc(/N=C/N(C)C)cc1C2=O | 20 | 10 |  |  |  |  |  | Activity (Rattus norvegicus [7]): Toxic; Activity (Rattus norvegicus [8]): Toxic; Activity (Syrian golden hamster [9]): Toxic; Activity (Syrian golden hamster [10]): Toxic |
| CN(C)/C(=N/c1ccc2c(c1)C(=O)c1ccc(/N=C(\C3CC3)N(C)C)cc1C2=O)C1CC1 | 10 | 50 |  |  |  |  |  | Activity (Salmonella typhimurium): Non-toxic |
| CCCCCCCCN(C)/C=N/c1ccc2c(c1)C(=O)c1ccc(/N=C/N(C)CCCCCCCC)cc1C2=O | 50 |  |  |  |  |  | inactive | Activity (Rattus norvegicus [7]): Toxic; Activity (Rattus norvegicus [8]): Toxic; Activity (Syrian golden hamster [9]): Toxic; Activity (Syrian golden hamster [10]): Toxic |
| CC(C)N(/C=N/c1ccc2c(c1)C(=O)c1ccc(/N=C/N(C(C)C)C(C)C)cc1C2=O)C(C)C | 20 | 100 |  |  |  |  |  | Activity (Rattus norvegicus [7]): Toxic; Activity (Rattus norvegicus [8]): Toxic; Activity (Syrian golden hamster [9]): Toxic; Activity (Syrian golden hamster [10]): Toxic |
| CCN(CC)/C(C)=N\c1ccc(/N=C(/C)N(CC)CC)c2c1C(=O)c1ccccc1C2=O |  |  |  |  |  |  | inactive | Activity (Entamoeba histolytica [1]): inactive |
| CN/C(C)=N/c1ccc2c(c1)C(=O)c1ccc(/N=C(\C)NC)cc1C2=O | 10 |  | Non-toxic | Non-toxic | Non-toxic | Non-toxic | inactive |  |
| CN(C)/C(=N/c1ccc2c(c1)C(=O)c1ccc(/N=C(\C3CCC3)N(C)C)cc1C2=O)C1CCC1 | 20 | 50 |  |  |  |  |  | Activity (Salmonella typhimurium): Non-toxic |
| CCN(CC)/C(C)=N/c1ccc2c(c1)C(=O)c1ccc(/N=C(\C)N(CC)CC)cc1C2=O | 10 | 2.5 | Non-toxic | Non-toxic | Non-toxic | Non-toxic |  | Activity (Salmonella typhimurium): Non-toxic |
| O=[N+]([O-])c1cncn1CCN1CCOCC1 [NIMORAZOLE] | 20 | 100 |  |  |  |  |  |  |
| CCN/C(C)=N/c1ccc2c(c1)C(=O)c1ccc(/N=C(\C)NCC)cc1C2=O | 10 |  | Non-toxic | Non-toxic | Non-toxic | Non-toxic | inactive |  |
| Cc1ncc([N+](=O)[O-])n1CCO [METRONIDAZOLE] | 10 | 10 |  |  |  |  |  |  |

From ChEMBL document CHEMBL3244250, “Bisamidines of 2,6-diaminoanthraquinone as antiamebic agents” (J Med Chem, 1978)
